In the supplement of paper PMC10307832:

How the values were obtained:
Assay in all cases: relative viability (nuclei count vs DMSO), 5 days (fraction); higher = more cells survive
VE-821 + Tozasertib = compound: CS(=O)(=O)c1ccc(-c2cnc(N)c(C(=O)Nc3ccccc3)n2)cc1 [VE-821] + Cc1cc(Nc2cc(N3CCN(C)CC3)nc(Sc3ccc(NC(=O)C4CC4)cc3)n2)n[nH]1 [Tozasertib] (partner 0.1 µM)
Outline: (§1)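 Relative viability equals treated-well nuclei counts divided by vehicle-well nuclei counts. Counts came from 4× images of lung cancer cell lines grown in 1536-well plates for 5 days after pin-tool dosing on the day after seeding. Dosing used one drug alone or a fixed anchor-drug dose plus five library-drug doses (not always all listed) in √10 steps, and values are medians of duplicate plates.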

Ruxolitinib + Foretinib = compound: N#CC[C@H](C1CCCC1)n1cc(-c2ncnc3[nH]ccc23)cn1 [Ruxolitinib] + COc1cc2c(Oc3ccc(NC(=O)C4(C(=O)Nc5ccc(F)cc5)CC4)cc3F)ccnc2cc1OCCCN1CCOCC1 [Foretinib] (partner 0.25 µM)
Outline: as §1

VE-821 + Foretinib = compound: CS(=O)(=O)c1ccc(-c2cnc(N)c(C(=O)Nc3ccccc3)n2)cc1 [VE-821] + COc1cc2c(Oc3ccc(NC(=O)C4(C(=O)Nc5ccc(F)cc5)CC4)cc3F)ccnc2cc1OCCCN1CCOCC1 [Foretinib] (partner 0.25 µM)
Outline: as §1

VE-821 + Trametinib = compound: CS(=O)(=O)c1ccc(-c2cnc(N)c(C(=O)Nc3ccccc3)n2)cc1 [VE-821] + CC(=O)Nc1cccc(-n2c(=O)n(C3CC3)c(=O)c3c(Nc4ccc(I)cc4F)n(C)c(=O)c(C)c32)c1 [Trametinib] (partner 0.02 µM)
Outline: as §1

Cell Line	relative viability (VE-821 + Tozasertib; first compound 0.08 µM)	relative viability (VE-821 + Tozasertib; first compound 0.253 µM)	relative viability (VE-821 + Tozasertib; first compound 0.8 µM)	relative viability (VE-821 + Tozasertib; first compound 2.53 µM)	relative viability (VE-821 + Tozasertib; first compound 8 µM)	relative viability (Ruxolitinib + Foretinib; first compound 0.08 µM)	relative viability (Ruxolitinib + Foretinib; first compound 0.253 µM)	relative viability (Ruxolitinib + Foretinib; first compound 0.8 µM)	relative viability (Ruxolitinib + Foretinib; first compound 2.53 µM)	relative viability (Ruxolitinib + Foretinib; first compound 8 µM)	relative viability (VE-821 + Foretinib; first compound 0.08 µM)	relative viability (VE-821 + Foretinib; first compound 0.253 µM)	relative viability (VE-821 + Foretinib; first compound 0.8 µM)	relative viability (VE-821 + Foretinib; first compound 2.53 µM)	relative viability (VE-821 + Foretinib; first compound 8 µM)	relative viability (VE-821 + Trametinib; first compound 0.08 µM)	relative viability (VE-821 + Trametinib; first compound 0.253 µM)	relative viability (VE-821 + Trametinib; first compound 0.8 µM)	relative viability (VE-821 + Trametinib; first compound 2.53 µM)	relative viability (VE-821 + Trametinib; first compound 8 µM)
NCI-H2126	0.911	0.911	0.671	0.703	0.518	1.09	1.27	1.2	1.12	1.16	1.38	1.1	1.21	1.1	0.764	0.54	0.54	0.549	0.495	0.533
NCI-H460	0.492	0.343	0.0499	0.0583	0.0489	1.02	0.999	1.1	0.917	0.843	1.02	0.979	0.841	0.919	0.17	0.185	0.0922	0.121	0.11	0.0592
SW 900	0.604	0.493	0.38	0.333	0.248	0.88	0.806	1.01	0.912	1.11	0.848	0.997	0.836	0.916	0.681	0.675	0.792	0.687	0.706	0.403
NCI-H1703	–	–	–	–	–	0.298	0.338	0.376	0.329	0.287	0.33	0.3	0.329	0.364	0.404	–	–	–	–	–
EBC-1	–	–	–	–	–	0.0875	0.0905	0.116	0.115	0.0903	0.0973	0.103	0.0999	0.104	0.102	–	–	–	–	–
NCI-H1299	–	–	–	–	–	1.09	1.1	1.05	0.982	0.853	1.1	1.08	1.04	1	1	–	–	–	–	–
Calu-6	–	–	–	–	–	0.936	0.884	0.99	0.81	0.523	0.94	0.932	0.821	0.767	0.753	–	–	–	–	–
NCI-H1792	–	–	–	–	–	–	–	–	–	–	–	–	–	–	–	0.505	0.464	0.361	0.65	0.492
IA-LM	–	–	–	–	–	1.04	1.19	1.34	1.22	0.885	1.2	0.957	1.15	1.04	1.03	–	–	–	–	–
NCI-H1648	0.415	0.608	0.518	0.61	0.345	–	–	–	–	–	–	–	–	–	–	0.581	–	0.394	0.729	0.575
NCI-H522	0.633	0.63	0.537	0.453	0.575	–	–	–	–	–	–	–	–	–	–	0.859	0.753	0.65	0.769	0.717
A549	–	–	–	–	–	0.926	0.926	1.08	0.834	0.632	0.996	0.93	0.858	0.861	0.713	–	–	–	–	–
